Laboratory results taken from patent publication USRE35706E, “Lipophila derivatives of muramylpeptides having properties of activating macrophages and compositions containing them” (priority 1984, dated 1997).
Values joined by “and” are separate entries in the source; they are usually repeats but may differ in a detail not shown here. Equal entries are not always repeated.

How the values were obtained:
[1] = system: Candida albicans; test: Protective action in mice infected with Candida albicans; format: in vivo
[2] = system: Klebsiella pneumoniae; test: Anti-infectious activity in mice infected with Klebsiella pneumoniae; format: in vivo; conditions: for protective activity against lethal Klebsiella pneumoniae infection in the mouse (in words): summary of observations
[3] = Retention of the muramylpeptide in liposomes suspended in MEM-FCS medium; format: physicochemical; conditions: liposomes in MEM-FCS medium at 37° C.
Protocol: Liposomes produced under the same conditions, but with muramylpeptides labeled with tritium have enabled the following observations. […] The incorporation of the MDP-GDP and the stability of the latter, has also been verified in reaction tests with anti-MDP monoclonal antibodies. After incubation of these liposomes in the same medium at 37° C. for 72 hours, there is observed a constant agglutination of the liposomes with the antibody (95% of the liposome being agglutinated), this observation bearing witness to the practical absence of any loss of MDP-GDP. […] The leakage, if it was produced, would have been manifested by a decrease in the intensity of agglutination with time.

[4] = system: bovine serumal-bumin; test: Adjuvant activity in the Swiss female mouse (passive hemagglutination titer); format: in vivo; conditions: for Primary response 1.21: 100 micrograms with 500 micrograms bovine serum albumin at day 0, serums titrated in pools at day 21; for Secondary response 1.36: booster of 100 micrograms antigen alone at day 30, serums titrated separately at day 36
Protocol: At day 0, 100 micrograms of C474 were injected with 500 micrograms of bovine serumal-bumin. At day 30, the animals received a booster of 100 micrograms of antigen alone. The following results were obtained:
The titers are expressed in Log 2 of the passive hemagglutination titer. At day 21, the serums were titrated in pools; at day 36, they were titrated separately.

[5] = Pyrogenicity measurements on rabbits (European Pharmacopoea); format: in vivo, rabbit; conditions: 1 mg/kg; groups of three rabbits, one value per animal; listed as 6 -0-GDP-MDPG-OnBu
Excerpt: Certain of the compounds according to the invention show at relatively high doses, a certain pyrogenicity, whose impact is however reduced, taking into account the particularly higher therapeutic index from which they appear to benefit. This being the case, the muramylpeptides in which the group of modification by the two lipophile chains is fixed to the 6 position of the saccharide group, and of which the peptide chain is terminated by a glutamy-alpha-ester-gamma-amide group, are particularly advantageous by reason of their more reduced pyrogenicity. Testimony thereof is borne by comparative pyrogenicity measurements carried out on groups of three rabits with the two compounds more particularly studied, according to the procedure of the European Pharmacopoea, Vol. 2, 1971, pages 58-60. In fact, the following results are obtained, expressed by temperature observations observed in experimental animals to which had previously been administered 1 mg/kg of the compounds studied: for the MDP-GDP : 1°;0.9° and 1° C.; for the 6 -0-GDP-MDPG-OnBu : 0.2°; 0.3° and 0.5° C.

[6] = Table X, 100 μg i.v. at day -1 (dose not given for MDP-L-Ala-GDP), 10^4 K. pneumoniae
[7] = Table XI, 100 μg/day/4 days i.v. (days -4, -3, -2 and -1), 2 × 10^6 Candida albicans

Which “Survival (10 d)” value ([1]; Table XI, Amphotericin B 3 μg subcutaneously on the day of infection, 2 × 10^6 Candida albicans i.v.) does the source give for `C[C@@H]1[C@H](O)[C@@H](C)/C=C/C=C/C=C/C=C/C=C/C=C/C=C/[C@H](O[C@@H]2O[C@H](C)[C@@H](O)[C@H](N)[C@@H]2O)C[C@@H]2O[C@](O)(C[C@@H](O)C[C@@H](O)[C@H](O)CC[C@@H](O)C[C@@H](O)CC(=O)O[C@H]1C)C[C@H](O)[C@H]2C(=O)O` [Amphotericin B, reference compound] here?
Its value is 2/16.

What does the source list for `CCCCCCCCCCCCCCCC(=O)OCC(COC(=O)[C@H](C)NC(=O)CC[C@@H](NC(=O)[C@H](C)NC(=O)[C@@H](C)O[C@H]1[C@H](O)[C@@H](CO)OC(O)[C@@H]1NC(C)=O)C(N)=O)OC(=O)CCCCCCCCCCCCCCC` (stereo partly drawn) [MDP-L-Ala-GDP, alpha (N-acetyl-muramyl-L-alanyl-D-isoglutaminyl-L-alanine), beta, gamma-dipalmitoyl-sn-glycerol]?
Protection (%) [2, 6]: 63%; retention of the muramylpeptide in the liposomes (in words) [3]: Quite similar observations

For Gentamicin [reference compound], which “Protection (%)” value ([2]; Table IX, Gentamicin 10 μg subcutaneously 2 hours after infection, 5 × 10^4 K. pneumoniae) is on record?
Its value is 21%.

What does the source list for `CCCCCCCCCCCCCCCC(=O)OC[C@@H](COC(=O)CC[C@@H](NC(=O)[C@H](C)NC(=O)[C@@H](C)O[C@H]1[C@H](O)[C@@H](CO)OC(O)[C@@H]1NC(C)=O)C(N)=O)OC(=O)CCCCCCCCCCCCCCC` (stereo partly drawn) [MDP-GDP, alpha (N-acetyl-muramyl-L-alanyl-D-isoglutamine), beta, gamma-dipalmitoyl-sn-glycerol]?
Protection ([1]; Table XI, 100 μg/day/4 days i.v.): 19; Survival (10 d) [1, 7]: 2/16; Protection ([1]; Table XII, aqueous suspension 100 μg × 4): 75%; Survival (10 d) ([1]; Table XII, aqueous suspension 100 μg × 4 (days -4, -3, -2, -1), 10^6 Candida albicans): 6/8; Primary response 1.21 [4]: 3.64 Log 2 of the passive hemagglut; Secondary response 1.36 [4]: 10.27 Log 2 of the passive hemagglut; Protection (%) ([2]; Table IX, 30 μg intravenously 24 hours before infection, 5 × 10^4 K. pneumoniae): 16%; protective activity when injected in liposomes (in words) ([2]; in liposomes, at 0.1 microgram): the most active; protective activity against lethal Klebsiella pneumoniae infection in the mouse (in words) [2]: protective activity comparable

Which “Primary response 1.21” value [4] does the source give for “6-O-(beta, gamma-dipalmitoyl-L-glyceryl)-N-acetyl-muramyl-L-alanyl-D-glutamine-n-buty l-ester [6-O-GDP-MDPG-OnBu]” here?
The value was 2.64 Log 2 of the passive hemagglut.

And the “Secondary response 1.36” value [4]?
Its value is 8.6 Log 2 of the passive hemagglut.

And the “pyrogenicity, temperature observations in experimental animals” value [5]?
The value was 0.2 °C and 0.3 °C and 0.5 °C.

And the “Protection (%)” value ([2]; Table VII, aqueous suspension, 100 μg i.v. at day -1, 10^4 K. pneumoniae)?
Its value is 68.7%.

What about the “Survival (15 d)” value ([2]; Table VII, aqueous suspension, 100 μg i.v. at day -1, mice infected i.v. with 10^4 K. pneumoniae) of the same compound?
The value was 22/32.

What about the “protective activity against lethal Klebsiella pneumoniae infection in the mouse (in words)” value [2] of the same compound?
Its value is “protective activity comparable”.

And the “retention of the muramylpeptide in the liposomes (in words)” value (“retention of the muramylpeptide” below) [3]?
The value was “Quite similar observations”.

What does the source list for `CCCCCCCCCCCCCCCC(=O)OCC(COC(=O)[C@H](C)NC(=O)CC[C@@H](NC(=O)[C@@H](C)NC(=O)[C@@H](C)O[C@H]1[C@H](O)[C@@H](CO)OC(O)[C@@H]1NC(C)=O)C(N)=O)OC(=O)CCCCCCCCCCCCCCC` (stereo partly drawn) [MDP(D,D)-L-Ala-GDP, alpha (N-acetyl-muramyl-D-alanyl-D-isoglutaminyl-L-alanine) beta, gamma-dipalmitoyl-sn-glycerol]?
Protection (%) [2, 6]: 25%; protective activity against lethal Klebsiella pneumoniae infection in the mouse (in words) [2]: although active, is less so than MDP-L-Ala-GDP; retention of the muramylpeptide in the liposomes (in words) [3]: Quite similar observations

For “6-O-(beta, gamma-dipalmitoyl-L-glycerol)-capryl-N-acetyl-muramyl-L-alanyl-D-glutamine -n-butyl ester [6-0-GDP-aminocaproyl-MDPG-OnBu]”, which “Protection (%)” value [2, 6] is on record?
Its value is 56%.

What about the “Survival (15 d)” value [2, 6] of the same compound?
The value was 9/16.

And the “retention of the muramylpeptide” value [3]?
The value was “Quite similar observations”.

For “alpha (N-acetyl-muramyl-D-alanyl-D-isoglutamine), beta, gamma-dipalmitoyl-sn-glycerol [MDP (D-D) - GDP]”, which “Survival (10 d)” value [1, 7] is on record?
The value was 0/16.

What about the “protective activity against lethal Klebsiella pneumoniae infection in the mouse (in words)” value [2] of the same compound?
The value was “protective activity comparable”.

What about the “retention of the muramylpeptide” value [3] of the same compound?
The value was “Quite similar observations”.
